Molecules are shown by their SMILES.

Inhibition and pest or weed control data for 14 compounds are collected here from US12540118B2, “Dendrene amide compound, bactericide and use thereof” (Jiangsu Flag Chemical Industry Co., Ltd., priority 2020, dated 2026).

For the first test, the target named is T1, succinate dehydrogenase (Sus scrofa, UniProt A5GZW8+D0VWV4+Q007T0).
T1 construct: isolated from porcine hearts; from tissue; host or cells: porcine heart
T1 sequence (Q0QF01 43-664 partner): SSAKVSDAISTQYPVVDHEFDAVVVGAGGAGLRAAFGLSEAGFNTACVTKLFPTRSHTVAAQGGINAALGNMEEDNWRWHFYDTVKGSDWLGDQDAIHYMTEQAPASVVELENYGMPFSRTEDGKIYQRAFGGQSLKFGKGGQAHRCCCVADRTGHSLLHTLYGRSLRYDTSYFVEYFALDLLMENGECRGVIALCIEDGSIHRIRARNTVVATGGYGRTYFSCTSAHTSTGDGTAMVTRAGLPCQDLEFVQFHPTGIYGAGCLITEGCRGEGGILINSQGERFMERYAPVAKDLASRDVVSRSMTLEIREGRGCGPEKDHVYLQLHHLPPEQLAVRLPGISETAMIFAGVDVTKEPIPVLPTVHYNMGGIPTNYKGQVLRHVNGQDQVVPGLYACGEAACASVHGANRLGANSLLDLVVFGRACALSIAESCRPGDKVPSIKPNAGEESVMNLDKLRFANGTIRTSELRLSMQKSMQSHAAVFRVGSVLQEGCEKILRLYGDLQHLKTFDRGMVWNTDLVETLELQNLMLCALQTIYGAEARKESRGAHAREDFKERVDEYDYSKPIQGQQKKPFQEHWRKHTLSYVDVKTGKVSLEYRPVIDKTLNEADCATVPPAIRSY
T1 sequence (Q007T0 29-280): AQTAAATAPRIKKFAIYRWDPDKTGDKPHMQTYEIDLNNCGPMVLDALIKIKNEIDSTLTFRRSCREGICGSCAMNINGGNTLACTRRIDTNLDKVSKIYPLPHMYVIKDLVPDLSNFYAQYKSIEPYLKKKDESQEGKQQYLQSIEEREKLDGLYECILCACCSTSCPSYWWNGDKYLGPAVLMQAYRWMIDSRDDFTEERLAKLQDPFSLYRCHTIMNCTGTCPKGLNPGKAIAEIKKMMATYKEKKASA
T1 sequence (D0VWV4 30-169): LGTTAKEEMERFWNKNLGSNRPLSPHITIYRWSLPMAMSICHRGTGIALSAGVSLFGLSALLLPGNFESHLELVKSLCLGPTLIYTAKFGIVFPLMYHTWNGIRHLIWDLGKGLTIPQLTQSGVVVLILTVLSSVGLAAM
T1 sequence (A5GZW8 57-159 limits assumed): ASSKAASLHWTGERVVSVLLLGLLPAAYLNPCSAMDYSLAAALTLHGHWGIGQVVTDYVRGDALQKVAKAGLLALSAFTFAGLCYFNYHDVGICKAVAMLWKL
The test is described as follows: Enzyme activity assay, succinate dehydrogenase (DCIP reduction). The test is classed as biochemical, porcine. As to conditions: read-out: Inhibitors (10 μM, SQR). How it is done: The inhibitory activities of control agents and target compounds on succinate dehydrogenase are determined.
The enzyme used in this test example is succinate dehydrogenase, which is isolated from porcine hearts.
The test method comprises the following steps: The total volume of the system is 1.8 ml, and the system contained 100 mM Na2HPO4—NaH2PO4 buffer (pH=7.4), 0.3 mM EDTA, 20 mM sodium succinate, 53 μM DCIP (2,6-dichloroindophenol sodium), and 2 nM succinate dehydrogenase. Thermostatic waterbath at 23° C. and magnetic stirring at 600 rpm. The decrease in the light absorption of the substrate DCIP is monitored at a wavelength of 600 nm and experimental points in a linear range are collected. Control substrate consumption not more than 5% of the experimental points. The molar extinction coefficient of DCIP is 21 mM^−1 cm^−1. And calculating the reduction yield of the DCIP in the reaction time, fitting a linear slope, and deducting the baseline slope to obtain the initial reaction speed.
`Cn1nc(C(F)F)c(C(=O)N(CC(=C(Cl)Cl)c2cc(S(C)(=O)=O)ccc2Cl)C2CC2)c1F` [Compound 162]: the inhibition at 10 µM is over 90%.
Same read-out and setting: the value for `Cc1ccc(C(C)C)cc1C(=C(Cl)Cl)C(C)N(C(=O)c1c(C(F)F)nn(C)c1F)C1CC1` (stereo not drawn) [Compound 197] was over 90%.
The same measure, in the same setting: the value for `C=C(c1cc(F)cc(F)c1)C(C)N(C(=O)c1c(C(F)F)nn(C)c1F)C1CC1` (stereo not drawn) [Compound 63] was over 90%; that for `C=C(c1cc(C(C)(C)C)ccc1C)C(C)N(C(=O)c1c(C(F)F)nn(C)c1F)C1CC1` (stereo not drawn) [Compound 95] was over 90%; that for `CC(C(=C(Cl)Cl)c1c(Br)cc(Br)cc1Br)N(C(=O)c1c(C(F)F)nn(C)c1F)C1CC1` (stereo not drawn) [Compound 190] was over 90%.
The same measure, in the same setting: the value for `C=C(CN(C(=O)c1c(C(F)F)nn(C)c1F)C1CC1)c1ccc(F)cc1Cl` [Compound 43] was over 90%.
For the compound `C=C(CN(C(=O)c1c(C(F)F)nn(C)c1F)C1CC1)c1cc(C)ccc1C(C)(C)C` [Compound 39], the inhibition at 10 µM is over 90%.
In the case of `C=C(c1cccc(Cl)c1Cl)C(C)N(C(=O)c1c(C(F)F)nn(C)c1F)C1CC1` (stereo not drawn) [Compound 75], the inhibition at 10 µM is over 90%.
On the same count and under the same terms, the value for `Cn1nc(C(F)F)c(C(=O)N(CC(=C(Cl)Cl)c2ccc(S(C)(=O)=O)cc2Cl)C2CC2)c1F` [Compound 159] was over 90%; that for `Cc1ccc(C(CN(C(=O)c2c(C(F)F)nn(C)c2F)C2CC2)=C(Cl)Cl)c(C)c1` [Compound 140] was over 90%; that for `C=C(c1ccc(F)cc1)C(C)N(C(=O)c1c(C(F)F)nn(C)c1F)C1CC1` (stereo not drawn) [Compound 68] was over 90%.
Same read-out and setting: for `C=C(CN(C(=O)c1c(C(F)F)nn(C)c1F)C1CC1)c1ccccc1Cl` [Compound 7] the value was over 90%.
Same read-out and setting: the value for `C=C(CN(C(=O)c1c(C(F)F)nn(C)c1F)C1CC1)c1cccc(F)c1` [Compound 21] was over 90%.
As for `Cn1nc(C(F)F)c(C(=O)N(CC(=C(Cl)Cl)c2cc(Cl)ccc2Cl)C2CC2)c1F` [Compound 119], the inhibition at 10 µM was over 90%.

A further test has as its system Sphaerotheca fuliginea. The test is described as follows: Sphaerotheca fuliginea potting method. The test is classed as in vivo. As to conditions: Podosphaera fuliginea; 100 mg/L; read-out: Sphaerotheca fuliginea control rating. How it is done: The fungicidal activity of the control agents and target compounds are determined. The test and investigation method refers to SOP-SC-1101 sphaerotheca fuliginea potting method in disinfectant rolls written by KANGZHUO and GUBAOGEN in “Standard operation specification for testing biological activity of pesticides”.
With `Cn1nc(C(F)F)c(C(=O)N(CC(=C(Cl)Cl)c2cc(S(C)(=O)=O)ccc2Cl)C2CC2)c1F` [Compound 162], the pest or weed control at 100 µg/mL was in the range of 80 to 100%.
On the same count and under the same terms, for `Cc1ccc(C(C)C)cc1C(=C(Cl)Cl)C(C)N(C(=O)c1c(C(F)F)nn(C)c1F)C1CC1` (stereo not drawn) [Compound 197] the value was 80 to 100%.
Take `C=C(c1cc(F)cc(F)c1)C(C)N(C(=O)c1c(C(F)F)nn(C)c1F)C1CC1` (stereo not drawn) [Compound 63]: the pest or weed control at 100 µg/mL was in the range of 80 to 100%.
As to `C=C(c1cc(C(C)(C)C)ccc1C)C(C)N(C(=O)c1c(C(F)F)nn(C)c1F)C1CC1` (stereo not drawn) [Compound 95], the pest or weed control at 100 µg/mL fell in the range of 80 to 100%.
Same read-out and setting: for `CC(C(=C(Cl)Cl)c1c(Br)cc(Br)cc1Br)N(C(=O)c1c(C(F)F)nn(C)c1F)C1CC1` (stereo not drawn) [Compound 190] the value was 80 to 100%; for `C=C(CN(C(=O)c1c(C(F)F)nn(C)c1F)C1CC1)c1ccc(F)cc1Cl` [Compound 43], 80 to 100%; for `C=C(CN(C(=O)c1c(C(F)F)nn(C)c1F)C1CC1)c1cc(C)ccc1C(C)(C)C` [Compound 39], 70 to 80%.
Same read-out and setting: for `C=C(c1cccc(Cl)c1Cl)C(C)N(C(=O)c1c(C(F)F)nn(C)c1F)C1CC1` (stereo not drawn) [Compound 75] the value was 80 to 100%; for `Cn1nc(C(F)F)c(C(=O)N(CC(=C(Cl)Cl)c2ccc(S(C)(=O)=O)cc2Cl)C2CC2)c1F` [Compound 159], 80 to 100%.
The same measure, in the same setting: the value for `Cc1ccc(C(CN(C(=O)c2c(C(F)F)nn(C)c2F)C2CC2)=C(Cl)Cl)c(C)c1` [Compound 140] was 80 to 100%.
`C=C(c1ccc(F)cc1)C(C)N(C(=O)c1c(C(F)F)nn(C)c1F)C1CC1` (stereo not drawn) [Compound 68]: the pest or weed control at 100 µg/mL lay within 80 to 100%.
Same read-out and setting: for `C=C(CN(C(=O)c1c(C(F)F)nn(C)c1F)C1CC1)c1ccccc1Cl` [Compound 7] the value was 80 to 100%; for `C=C(CN(C(=O)c1c(C(F)F)nn(C)c1F)C1CC1)c1cccc(F)c1` [Compound 21], 70 to 80%.
On to `Cn1nc(C(F)F)c(C(=O)N(CC(=C(Cl)Cl)c2cc(Cl)ccc2Cl)C2CC2)c1F` [Compound 119], for which the pest or weed control at 100 µg/mL lay in the range of 80 to 100%.

Another test deals with Erysiphe graminis. The test is described as follows: Erysiphe graminis potting method. The test is classed as in vivo. As to conditions: Blumeria graminis; 100 mg/L; read-out: Erysiphe graminis control rating. As for the experimental part: The fungicidal activity of the control agents and target compounds are determined. The test and investigation method refers to SOP-SC-1116 Erysiphe graminis potting method in disinfectant rolls written by KANGZHUO and GUBAOGEN in “Standard operation specification for testing biological activity of pesticides”.
Turning to `Cn1nc(C(F)F)c(C(=O)N(CC(=C(Cl)Cl)c2cc(S(C)(=O)=O)ccc2Cl)C2CC2)c1F` [Compound 162], the pest or weed control at 100 µg/mL lay in the range of 80 to 100%.
Same read-out and setting: for `Cc1ccc(C(C)C)cc1C(=C(Cl)Cl)C(C)N(C(=O)c1c(C(F)F)nn(C)c1F)C1CC1` (stereo not drawn) [Compound 197] the value was 80 to 100%; for `C=C(c1cc(F)cc(F)c1)C(C)N(C(=O)c1c(C(F)F)nn(C)c1F)C1CC1` (stereo not drawn) [Compound 63], 80 to 100%.
Still for that read-out and setting: the value for `C=C(c1cc(C(C)(C)C)ccc1C)C(C)N(C(=O)c1c(C(F)F)nn(C)c1F)C1CC1` (stereo not drawn) [Compound 95] was 80 to 100%.
The same measure, in the same setting: for `CC(C(=C(Cl)Cl)c1c(Br)cc(Br)cc1Br)N(C(=O)c1c(C(F)F)nn(C)c1F)C1CC1` (stereo not drawn) [Compound 190] the value was 80 to 100%; for `C=C(CN(C(=O)c1c(C(F)F)nn(C)c1F)C1CC1)c1ccc(F)cc1Cl` [Compound 43], 80 to 100%.
`C=C(CN(C(=O)c1c(C(F)F)nn(C)c1F)C1CC1)c1cc(C)ccc1C(C)(C)C` [Compound 39]: the pest or weed control at 100 µg/mL was 80 to 100%.
The same measure, in the same setting: the value for `C=C(c1cccc(Cl)c1Cl)C(C)N(C(=O)c1c(C(F)F)nn(C)c1F)C1CC1` (stereo not drawn) [Compound 75] was 80 to 100%; that for `Cn1nc(C(F)F)c(C(=O)N(CC(=C(Cl)Cl)c2ccc(S(C)(=O)=O)cc2Cl)C2CC2)c1F` [Compound 159] was 80 to 100%.
With `Cc1ccc(C(CN(C(=O)c2c(C(F)F)nn(C)c2F)C2CC2)=C(Cl)Cl)c(C)c1` [Compound 140], the pest or weed control at 100 µg/mL was in the range of 80 to 100%.
Consider `C=C(c1ccc(F)cc1)C(C)N(C(=O)c1c(C(F)F)nn(C)c1F)C1CC1` (stereo not drawn) [Compound 68], for which the pest or weed control at 100 µg/mL was 80 to 100%.
As to `C=C(CN(C(=O)c1c(C(F)F)nn(C)c1F)C1CC1)c1ccccc1Cl` [Compound 7], the pest or weed control at 100 µg/mL was in the range of 80 to 100%.
On the same count and under the same terms, for `C=C(CN(C(=O)c1c(C(F)F)nn(C)c1F)C1CC1)c1cccc(F)c1` [Compound 21] the value was 80 to 100%; for `Cn1nc(C(F)F)c(C(=O)N(CC(=C(Cl)Cl)c2cc(Cl)ccc2Cl)C2CC2)c1F` [Compound 119], 80 to 100%.
